SMILES strings stand for the structures. Bounds are passed on as bounds.

One data set has as its target T1, A1AR (Homo sapiens, UniProt P30542).
T1 sequence (P30542 1-326): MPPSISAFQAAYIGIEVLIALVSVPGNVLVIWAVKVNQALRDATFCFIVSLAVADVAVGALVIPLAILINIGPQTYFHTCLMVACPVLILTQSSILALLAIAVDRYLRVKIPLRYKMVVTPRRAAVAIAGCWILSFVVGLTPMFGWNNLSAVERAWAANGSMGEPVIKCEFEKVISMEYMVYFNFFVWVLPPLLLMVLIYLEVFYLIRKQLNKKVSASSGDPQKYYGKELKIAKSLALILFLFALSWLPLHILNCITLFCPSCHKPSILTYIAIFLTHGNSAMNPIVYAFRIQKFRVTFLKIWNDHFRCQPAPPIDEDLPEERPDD
As to the kind of experiment: Binding affinity of A2AAR ligands, radioligand displacement at A1AR. Particulars: for selectivity ratio vs. the A2AAR, A1AR: number in parentheses. In general terms: Loss of bound radioactivity is the signal in a displacement assay; it reports binding, not function.

The target of the next data set is T2, A2BAR (Homo sapiens, UniProt P29275).
T2 sequence (P29275 1-332): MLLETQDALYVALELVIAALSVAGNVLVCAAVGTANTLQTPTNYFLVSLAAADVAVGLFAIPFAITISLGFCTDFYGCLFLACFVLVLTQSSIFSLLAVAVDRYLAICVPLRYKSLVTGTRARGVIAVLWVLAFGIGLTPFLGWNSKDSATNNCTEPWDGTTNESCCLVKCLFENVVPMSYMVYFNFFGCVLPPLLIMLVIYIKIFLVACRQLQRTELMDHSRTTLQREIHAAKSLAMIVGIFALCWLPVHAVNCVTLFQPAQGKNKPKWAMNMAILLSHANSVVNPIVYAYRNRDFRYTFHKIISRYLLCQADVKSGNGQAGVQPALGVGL
As to the kind of experiment: Binding affinity of A2AAR ligands, radioligand displacement at A2BAR. Particulars: for displacement of radioligand, A2BAR: 1 μM candidate ligand; for selectivity ratio vs. the A2AAR, A2BAR: number in parentheses.

Another data set has as its target A2A adenosine receptor (Homo sapiens, UniProt P29274). As to the kind of experiment: Human Ki of the compound tables. The class given is binding. Particulars: receptor subtype not given.
The next data set addresses T3, A3AR (Homo sapiens, UniProt P0DMS8).
T3 sequence (P0DMS8 1-318): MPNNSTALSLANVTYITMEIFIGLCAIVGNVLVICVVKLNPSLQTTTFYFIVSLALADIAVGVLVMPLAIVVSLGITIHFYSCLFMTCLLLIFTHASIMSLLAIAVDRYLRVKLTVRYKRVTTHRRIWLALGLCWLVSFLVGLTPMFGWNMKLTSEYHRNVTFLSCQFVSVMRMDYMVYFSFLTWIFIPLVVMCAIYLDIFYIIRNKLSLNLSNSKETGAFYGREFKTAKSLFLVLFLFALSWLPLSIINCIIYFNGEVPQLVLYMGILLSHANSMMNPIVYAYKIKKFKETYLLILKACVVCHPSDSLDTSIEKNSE
As to the kind of experiment: Binding affinity of A2AAR ligands, radioligand displacement at A3AR. Particulars: for displacement of radioligand, A3AR: 1 μM candidate ligand; for selectivity ratio vs. the A2AAR, A3AR: number in parentheses.

In the next data set the target is A2AAR (Homo sapiens, UniProt P29274). As to the kind of experiment: Binding affinity of A2AAR ligands, radioligand displacement at A2AAR.
A2AAR, sequence (P29274 whole entry): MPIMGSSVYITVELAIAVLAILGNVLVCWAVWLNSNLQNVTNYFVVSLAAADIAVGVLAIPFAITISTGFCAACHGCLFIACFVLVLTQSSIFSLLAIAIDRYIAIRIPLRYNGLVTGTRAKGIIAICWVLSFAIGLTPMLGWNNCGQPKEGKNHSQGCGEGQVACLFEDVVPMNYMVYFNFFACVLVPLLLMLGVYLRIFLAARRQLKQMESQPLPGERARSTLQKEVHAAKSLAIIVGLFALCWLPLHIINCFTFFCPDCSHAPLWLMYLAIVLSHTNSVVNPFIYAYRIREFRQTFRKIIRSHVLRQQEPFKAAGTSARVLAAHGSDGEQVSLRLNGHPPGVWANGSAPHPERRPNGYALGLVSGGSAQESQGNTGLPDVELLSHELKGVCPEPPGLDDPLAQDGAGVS
For data set [1] the following is noted: in vivo; cited from earlier work.
The next data set concerns rats. Particulars: cited from earlier work.
The test system of another data set is PD patients. Particulars: 20–80 mg/day; cited from earlier work.
The next data set relates to dopamine-depleted mice. As to the kind of experiment: Synergy with L-dopa on locomotor activity in MPTP dopamine-depleted mice. Particulars: MPTP-treated mice. The class given is in vivo, mouse. On the procedure:
We further tested the ability of these compounds to synergistically enhance motor function in conjunction with L-dopa, the standard therapy. Mice are injected (i.p.) with MPTP at a dose (1–2.5 mg/kg) that markedly decreases striatal dopamine levels. […] Locomotor behavior is monitored for 120 min before and after the treatment.

Another data set relates to C57BL/6 mice. As to the kind of experiment: Motor stimulation in normal mice, locomotor activity cage system. In kind it is in vivo, mouse. On the procedure:
The ability of compounds to stimulate motor activity in normal mice was measured using a simple, computer-assisted locomotor activity cage system. C57BL/6 mice (n═6–8 purchased from the Jackson's lab) were habituated for the testing environment for 120 minute prior to drug treatment. The test compounds were dissolved in vehicle (10% DMSO, 10% castrol oil EL-620 and 80% saline). The drug was administrated intraperitoneally at a dose of 15 mg/kg, and locomotor activity was recorded for 2 hours before and after drug administration.

Data set [2] concerns A2A receptor KO and WT mice. As to the kind of experiment: Motor stimulant effect in A2A receptor KO mice and WT littermates. The class given is in vivo, mouse. Particulars: 15 mg/kg, FIG. 2. On the procedure:
We validated that ATL-2 acts on the A2A receptor to stimulate motor activity by using A2AR KO mice (in both mixed (129sv X C57BL/6) as well as congenic (C57BL/6 genetic background) developed over the last several years. We evaluated the motor stimulant effect of ATL-2 in A2A receptor KO and their WT littermates. WT and A2A KO mice (n=4) were habituated for 60 minutes and treated with ATL-2 (15 mg/kg) and recorded for motor activity for 120 minutes.

In data set [3] the test system is normal and dopamine-depleted mice. As to the kind of experiment: Dose response of motor activity in normal and MPTP dopamine-depleted mice. The class given is in vivo, mouse. Particulars: i.p. On the procedure:
In the set of experiments, we perform a dose response study of ATL-2 in stimulating motor activity in normal mice, and then we further extend this to dopamine-depleted mice. Adult male mice are habituated for 120 minutes and treated (i.p.) with saline or varying doses of compound, and their locomotor activity recorded for 120 minutes.
In a second set of experiments, we utilize the MPTP treatment paradigm to create animal model of PD by severely depleting dopamine in mice. We use a single MPTP treatment paradigm (40 mg/kg) which has been reproducibly reducing dopamine to 30–40% of normal dopamine contents in striatum in our previous studies.^35,74 Adult male mice (˜[…]) are treated with single dose of MPTP (40 mg/kg). Thirty minutes after the MPTP treatment, mice are injected (i.p.) with vehicle or compounds of the invention at the same doses discussed above. Their motor activity is recorded for 180 minutes.

The subject of data set [4] is unilateral 6-OHDA-lesioned mice. As to the kind of experiment: L-dopa-induced locomotor sensitization in unilateral 6-OHDA-lesioned mice. The class given is in vivo, mouse. Particulars: 3 or 10 mg/kg i.p. before daily L-dopa. How it is done: The ability of ATL-2 to modify the development of L-dopa-induced locomotor sensitization in hemiparkinsonian mice are tested. C57BL/6 mice (from the Jackson's lab, Bar Harbor, […].) are lesioned with 6-OHDA by unilateral intrastriatal using a standard lesioning protocol. Seven days after the 6-OHDA (or MPP^+) treatment, mice are injected with L-dopa (2.0 mg/kg, daily) for 14 days. Five min prior to each L-dopa treatment, the mice receive intraperitoneal pretreatment with: (1) vehicle, (2) ATL-2 (3 mg/kg) or (3) ATL-2 (10 mg/kg). […] Rotational responses to L-dopa are recorded on the days 1, 3, 5, 7, 10 and 15. Following the behavioral measurement, mice may be sacrificed and their brains sectioned through striatum and substantia nigra. Striatal enkephalin mRNA levels are determined by in situ hybridization histochemistry. Similarly, DAT (^3H-mazindol) binding is measured by receptor autoradiography to ensure successful and equivalent lesions among different experimental groups.

The conditions of data set [5]: cited from earlier work.
Where [6] appears, read: normal C57BL/6 mice, 15 mg/kg intraperitoneally, FIG. 1.

A2A adenosine receptor, sequence (P29274 whole entry): as above

Consider `Nc1nc(C#CC2(O)C3CC4CC(C3)CC2C4)nc2c1ncn2C1CCCC1` (stereo not drawn) [Compound 50], for which the Ki at A1AR is above 325 nM; at A2A adenosine receptor, below 100 nM; on A2AAR it was 12 nM. The “selectivity ratio vs. the A2AAR, A1AR” value on A1AR was above 27. Further, at A2BAR, the “displacement of radioligand, A2BAR” value is 40%. The “displacement of radioligand, A3AR” value on A3AR amounted to 40%.
Regarding `Nc1nc(NCCc2ccc(O)cc2)nc2nc(-c3ccco3)nn12` [ZM241385], the bioavailability result in [1] was “poor bioavailability”.
Take `CCC(CC)Nc1nc(C#C[C@]2(O)CCC[C@@H](C)C2)nc2c1ncn2C` [Compound 11, 2-{2-[1(S)-Hydroxy-3(R)-methyl-1-cyclohexyl]ethyn-1-yl}-9-methyl-N6-(3-pentyl)adenine]: the Ki was 172 nM on A1AR, below 500 nM at A2A adenosine receptor and 137 nM on A2AAR. For the same molecule, the “selectivity ratio vs. the A2AAR, A1AR” value on A1AR amounted to 1.3. The “displacement of radioligand, A2BAR” value on A2BAR came out at 20%. For the same molecule, the “displacement of radioligand, A3AR” value at A3AR was 30%.
In the case of `CCn1c(=O)c2c(nc(/C=C/c3ccc(OC)c(OC)c3)n2C)n(CC)c1=O` [KW6002], the toxicity result in the data set with rats is listed as “long-term toxicity”. The “tolerability in clinical trial” value with PD patients is recorded as “well tolerated”.
As for `C#CCn1cnc2c(N)nc(C#C[C@]3(O)CCC[C@@H](C)C3)nc21` [Compound 2, 2-{2-[1(S)-Hydroxy-3(R)-methyl-1-cyclohexyl]ethyn-1-yl}-9-propargyladenine], the “shift of the dose-response curve with L-dopa” value in the data set with dopamine-depleted mice is given as “left-shift”. In addition, the “effect with L-dopa in stimulating locomotor activity” value with dopamine-depleted mice (L-dopa 25 mg/kg + ATL-2 0.3-10 mg/kg) is given as “synergistic effect”. In addition, in the data set with C57BL/6 mice (from previous experience with other A2AR antagonists), the “motor stimulant effect compared with other A2AR antagonists such as SCH58261 and KW6002” value is on record as “comparable or stronger”. Moreover, in the data set with C57BL/6 mice (setting [6]), the “duration of motor stimulation” value is “about 60 minutes”. Also, the “motor stimulation (locomotor activity)” value in the data set with C57BL/6 mice (setting [6]) is recorded as “strong motor stimulation”. For the same molecule, in the data set with C57BL/6 mice (setting [6]), the “time to peak of motor stimulation” value is at most 20 min. Moreover, the Ki on A1AR was 4.6 nM; on A2BAR it was 50 nM; at A2A adenosine receptor it was below 100 nM; at A3AR it was 599 nM; on A2AAR, 0.95 nM. Moreover, the “selectivity ratio vs. the A2AAR, A1AR” value on A1AR stood at 5. Moreover, the “motor stimulation in A2A receptor KO mice” value in [2] (A2A receptor KO mice) is recorded as “absent”. Further, the “motor activity in WT mice” value in data set [2] (WT littermates) is “produced motor activity”. Besides, in data set [3], the “motor function, dose dependence” value was “Enhances Motor Function in a Dose-dependent Manner”. For the same molecule, the “development of L-dopa-induced locomotor sensitization” value in data set [4] is given as “delays or prevent the development of locomotor sensitization”. Moreover, the “selectivity ratio vs. the A2AAR, A3AR” value on A3AR was 630.
`C[C@@H]1CCC[C@@](O)(C#Cc2nc(N)c3ncn(C4CCCC4)c3n2)C1` [Compound 3, 9-Cyclopentyl-2-{2-[1(S)-hydroxy-3(R)-methyl-1-cyclohexyl]ethyn-1-yl}adenine]: the Ki at A1AR is 368 nM; at A2BAR, 357 nM; at A2A adenosine receptor, below 100 nM; at A3AR, 633 nM; on A2AAR, 10 nM. Besides, the “selectivity ratio vs. the A2AAR, A1AR” value on A1AR turned out to be 37. On A2BAR, the “selectivity ratio vs. the A2AAR, A2BAR” value stood at 36. In addition, the “selectivity ratio vs. the A2AAR, A3AR” value at A3AR was 63.
Regarding `Nc1nc2c(cnn2CCc2ccccc2)c2nc(-c3ccco3)nn12` [SCH58261], the solubility result in data set [5] is listed as “very poorly soluble”.
For the molecule `C#CCn1cnc2c(N)nc(C#CC3(O)C4CC5CC(C4)CC3C5)nc21` (stereo not drawn) [Compound 51], the Ki is 25 nM at A1AR; 155 nM on A2BAR; below 100 nM at A2A adenosine receptor; above 650 nM at A3AR; 1.6 nM at A2AAR. For the same molecule, the “selectivity ratio vs. the A2AAR, A1AR” value at A1AR is 16. Besides, at A2BAR, the “selectivity ratio vs. the A2AAR, A2BAR” value was determined as 97. Moreover, the “selectivity ratio vs. the A2AAR, A3AR” value at A3AR is on record as above 400.
For `C#CCn1cnc2c(NC(CC)CC)nc(C#C[C@]3(O)CCC[C@@H](C)C3)nc21` [Compound 17, 2-{2-[1(S)-Hydroxy-3(R)-methyl-1-cyclohexyl]ethyn-1-yl}-N6-(3-pentyl)-9-(propargyl)adenine], the Ki on A1AR is 11 nM; at A2BAR, 147 nM; on A2A adenosine receptor, below 100 nM; at A3AR, 188 nM; at A2AAR, 5 nM. The “selectivity ratio vs. the A2AAR, A1AR” value at A1AR came to 2. Further, the “selectivity ratio vs. the A2AAR, A2BAR” value on A2BAR was 29. Besides, the “selectivity ratio vs. the A2AAR, A3AR” value at A3AR worked out at 38.

As usually defined, the Ki is a measure of affinity in units of concentration, obtained from inhibition or displacement.

Values taken from patent US7217702B2, “Selective antagonists of A2A adenosine receptors” (Adenosine Therapeutics, LLC, priority 2004, dated 2007).
